The text below walks through data of paper PMC6017357, “In Vitro Inhibitory Effects of Synthetic Cannabinoid EAM-2201 on Cytochrome P450 and UDP-Glucuronosyltransferase Enzyme Activities in Human Liver Microsomes” (Molecules : A Journal of Synthetic Chemistry and Natural …, 2018).

The target in one data set is T1, UGT1A1 (Homo sapiens, UniProt P22309).
T1 construct: ultrapooled human liver microsomes (0.2 mg/mL), 5 mM UDPGA; from tissue; host or cells: ultrapooled human liver microsomes
T1 sequence (P22309 26-533): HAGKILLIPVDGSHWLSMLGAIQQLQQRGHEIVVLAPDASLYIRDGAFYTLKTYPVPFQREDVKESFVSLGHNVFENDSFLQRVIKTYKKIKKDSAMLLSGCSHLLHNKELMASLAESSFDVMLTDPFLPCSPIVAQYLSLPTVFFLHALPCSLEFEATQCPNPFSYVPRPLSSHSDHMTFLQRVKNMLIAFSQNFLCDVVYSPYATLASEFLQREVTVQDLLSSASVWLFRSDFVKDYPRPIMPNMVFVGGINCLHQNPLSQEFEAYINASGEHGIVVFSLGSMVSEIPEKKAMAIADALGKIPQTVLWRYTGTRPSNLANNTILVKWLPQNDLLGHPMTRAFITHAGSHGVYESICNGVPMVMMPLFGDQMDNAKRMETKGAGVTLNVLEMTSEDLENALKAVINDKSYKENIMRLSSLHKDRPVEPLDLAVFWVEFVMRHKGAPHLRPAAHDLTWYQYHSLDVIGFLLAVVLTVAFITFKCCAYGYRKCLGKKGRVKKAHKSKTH
Briefly: UGT1A1-catalyzed SN-38 glucuronidation in human liver microsomes. To be noted: at 50 µM. In kind it is in vitro ADME. As to the method: The inhibitory effects of EAM-2201 on UGT1A1, UGT1A3, UGT1A4, UGT1A6, UGT1A9 and UGT2B7 were evaluated using LC-MS/MS and the cocktail of UGT substrates as previously described. Each incubation mixture was prepared in a final volume of 100 µL as follows: ultrapooled human liver microsomes (0.2 mg/mL), 5 mM UDPGA, 10 mM magnesium chloride, alamethicin (25 µg/mL), 50 mM Tris buffer (pH 7.4), various concentrations of EAM-2201 in DMSO (final concentrations of 1–50 µM, 0.5% DMSO) and the UGT enzyme-specific substrates of two cocktail sets (set A: 0.5 µM SN-38, 2 µM chenodeoxycholic acid and 0.5 µM trifluoperazine; set B: 1 µM N-acetylserotonin, 0.2 µM mycophenolic acid and 1 µM naloxone, acetonitrile content, 0.5%). […] Supernatant from sets A and B (50 µL of each) was mixed and aliquots (5 µL) were analyzed by LC-MS/MS. […]
The metabolites formed from the six UGT cocktail substrates were simultaneously measured using LC-MS/MS [41]. […] Each metabolite was quantified via SRM in the negative ion mode: chenodeoxycholic acid 24-acyl-β-glucuronide, 567.2 > 391.0; mycophenolic acid glucuronide, 495.2 > 318.9; and propofol glucuronide (IS), 353.3 > 177.1; and in the positive ion mode: SN-38 glucuronide, 569.0 > 393.0; trifluoperazine glucuronide, 584.2 > 408.1; N-acetylserotonin-β-D-glucuronide, 395.2 > 219.0; naloxone 3-β-D-glucuronide, 504.0 > 310.0; and meloxicam (IS), 352.0 > 115.1. […]
On the technique in general: Microsomes from liver hold many membrane-bound enzymes, among them those of drug oxidation.

For data set [1] the following is noted: human liver microsomes; cited from earlier work.

As for `CCc1ccc(C(=O)c2cn(CCCCCF)c3ccccc23)c2ccccc12` [EAM-2201, (4-ethyl-1-naphthalenyl)[1-(5-fluoropentyl)-1H-indol-3-yl]-methanone], at UGT1A1, the “inhibition of UGT1A1-catalyzed SN-38 glucuronidation” value is recorded as “negligibly inhibited”. Further, the number of metabolites in data set [1] was 37 metabolites.
